Assay results reported in PMC12136037, “Type II kinase inhibitors that target Parkinson’s disease–associated LRRK2” (Science Advances, 2025).
Values joined by “and” are separate entries in the source; they are usually repeats but may differ in a detail not shown here. Equal values may be shown once. Read-outs that look alike come from different tables or passages of the source.

How the values were obtained:
[1] = target: T1, DDR2 (Homo sapiens, UniProt Q16832); assay: nanoBRET off-target validation; type: cell-based
T1 construct: host or cells: HEK293T (ATCC CRL-3216)
T1 sequence (Q16832 22-855): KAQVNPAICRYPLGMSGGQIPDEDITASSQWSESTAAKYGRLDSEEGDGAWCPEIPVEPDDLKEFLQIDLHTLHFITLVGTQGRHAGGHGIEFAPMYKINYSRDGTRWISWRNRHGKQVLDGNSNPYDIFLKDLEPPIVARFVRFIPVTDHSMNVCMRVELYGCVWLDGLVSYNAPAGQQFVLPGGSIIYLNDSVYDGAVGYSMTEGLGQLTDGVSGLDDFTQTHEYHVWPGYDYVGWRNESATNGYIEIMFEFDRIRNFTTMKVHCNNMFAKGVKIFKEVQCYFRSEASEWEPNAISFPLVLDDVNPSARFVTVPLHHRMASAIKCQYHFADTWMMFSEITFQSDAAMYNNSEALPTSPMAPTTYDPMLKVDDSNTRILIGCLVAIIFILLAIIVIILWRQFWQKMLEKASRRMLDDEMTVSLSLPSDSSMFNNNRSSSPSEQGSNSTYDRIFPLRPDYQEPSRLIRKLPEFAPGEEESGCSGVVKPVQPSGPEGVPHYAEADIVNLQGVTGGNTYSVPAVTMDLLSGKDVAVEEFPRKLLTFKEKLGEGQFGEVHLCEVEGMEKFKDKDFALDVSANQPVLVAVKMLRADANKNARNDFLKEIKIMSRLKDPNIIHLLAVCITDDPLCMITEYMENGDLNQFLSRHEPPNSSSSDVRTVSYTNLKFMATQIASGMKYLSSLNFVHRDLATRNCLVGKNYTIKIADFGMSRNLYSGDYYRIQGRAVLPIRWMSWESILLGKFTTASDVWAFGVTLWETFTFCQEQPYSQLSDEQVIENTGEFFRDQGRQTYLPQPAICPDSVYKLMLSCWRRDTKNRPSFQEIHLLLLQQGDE
Description: (§1) The assay was performed as described previously ([61]). In brief, full-length kinases as listed in table S6 were obtained as plasmids cloned in frame with terminal NanoLuc-fusion (gift from Promega; table S6). […] Serially diluted inhibitor and corresponding tracer as listed in table S6 at the Tracer KD concentration taken from TracerDB (tracerdb.org) ([62]) were pipetted into white 384-well plates (Greiner, 781207) using an ECHO acoustic dispenser (Labcyte). The corresponding protein-transfected cells were added and reseeded at a density of 2 × 10^5 cells/ml after trypsinization and resuspending in Opti-MEM without phenol red (Life Technologies). The system was allowed to equilibrate for 3 hours at 37°C/5% CO2 before bioluminescence resonance energy transfer (BRET) measurements. To measure BRET, NanoBRET NanoGlo Substrate + extracellular NanoLuc Inhibitor (Promega, N2540) was added as per the manufacturer’s protocol, and filtered luminescence was measured on a PHERAstar plate reader (BMG Labtech) equipped with a luminescence filter pair [450-nm BP filter (donor) and 610-nm LP filter (acceptor)]. […] (For step-by-step protocol, see www.eubopen.org/sites/www.eubopen.org/files/attachments/2021/NanoBRET-IC50_v1_0.pdf.)

[2] = target: T2, JNK3 (Homo sapiens, UniProt P53779); assay: nanoBRET off-target validation; type: cell-based
T2 construct: host or cells: HEK293T (ATCC CRL-3216)
T2 sequence (P53779 whole entry): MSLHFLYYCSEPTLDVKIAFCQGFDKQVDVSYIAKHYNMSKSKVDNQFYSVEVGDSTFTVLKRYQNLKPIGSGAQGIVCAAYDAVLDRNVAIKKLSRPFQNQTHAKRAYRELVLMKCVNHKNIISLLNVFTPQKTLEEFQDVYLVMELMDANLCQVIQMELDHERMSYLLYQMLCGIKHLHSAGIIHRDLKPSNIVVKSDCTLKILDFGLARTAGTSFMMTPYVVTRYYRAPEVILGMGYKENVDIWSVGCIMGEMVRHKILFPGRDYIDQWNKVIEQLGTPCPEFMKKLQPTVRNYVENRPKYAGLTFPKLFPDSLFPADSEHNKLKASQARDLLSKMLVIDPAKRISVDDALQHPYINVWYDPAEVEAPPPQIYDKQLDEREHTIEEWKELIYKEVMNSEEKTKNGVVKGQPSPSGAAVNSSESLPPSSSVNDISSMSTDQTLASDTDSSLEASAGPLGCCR
Description: as §1

CCSc1nc(NC)c2c(-c3cccc(NC(=O)Nc4cc(C(C)(C)C)nn4-c4ccc(C)cc4)c3)c[nH]c2n1 [Compound 32] was tested. Which EC50 [1] did it give?
The EC50 was greater than 20 µM.

What about the remaining tracer BRET signal at 0.008 µM ([1]; DDR2, inhibitor 8 nM, two replicates, read-out: nanoBRET response normalized to 0% (no tracer) and 100% (no inhibitor) control) of the same compound?
The remaining tracer BRET signal at 0.008 µM was 102% and 95.3%.

What about the “nanoBRET response normalized to 0% (no tracer) and 100% (no inhibitor) control” value ([1]; DDR2, inhibitor 16 nM, two replicates, listed as RN341, 0.016 µM) of the same compound?
Its value is 102.202%.

What about the remaining tracer BRET signal at 0.016 µM ([1]; DDR2, inhibitor 16 nM, two replicates, read-out: nanoBRET response normalized to 0% (no tracer) and 100% (no inhibitor) control) of the same compound?
The remaining tracer BRET signal at 0.016 µM was 105%.

What about the “nanoBRET response normalized to 0% (no tracer) and 100% (no inhibitor) control” value ([1]; DDR2, inhibitor 50 nM, two replicates, listed as RN341, 0.05 µM) of the same compound?
Its value is 98.4821%.

What about the remaining tracer BRET signal at 0.05 µM ([1]; DDR2, inhibitor 50 nM, two replicates, read-out: nanoBRET response normalized to 0% (no tracer) and 100% (no inhibitor) control) of the same compound?
Its remaining tracer BRET signal at 0.05 µM is 114%.

And the “nanoBRET response normalized to 0% (no tracer) and 100% (no inhibitor) control” value ([1]; DDR2, inhibitor 250 nM, two replicates, listed as RN341, […])?
The value was 104.362%.

What about the remaining tracer BRET signal at […] ([1]; DDR2, inhibitor 250 nM, two replicates, read-out: nanoBRET response normalized to 0% (no tracer) and 100% (no inhibitor) control) of the same compound?
Its remaining tracer BRET signal at […] is 123%.

And the “nanoBRET response normalized to 0% (no tracer) and 100% (no inhibitor) control” value ([1]; DDR2, inhibitor 500 nM, two replicates, listed as RN341, 0.5 µM)?
Its value is 117.148%.

And the remaining tracer BRET signal at 0.5 µM ([1]; DDR2, inhibitor 500 nM, two replicates, read-out: nanoBRET response normalized to 0% (no tracer) and 100% (no inhibitor) control)?
Its remaining tracer BRET signal at 0.5 µM is 129%.

And the “nanoBRET response normalized to 0% (no tracer) and 100% (no inhibitor) control” value ([1]; DDR2, inhibitor 2500 nM, two replicates, listed as RN341, […])?
Its value is 86.9292%.

And the remaining tracer BRET signal at […] ([1]; DDR2, inhibitor 2500 nM, two replicates, read-out: nanoBRET response normalized to 0% (no tracer) and 100% (no inhibitor) control)?
Its remaining tracer BRET signal at […] is 103%.

And the “nanoBRET response normalized to 0% (no tracer) and 100% (no inhibitor) control” value ([1]; DDR2, inhibitor 5000 nM, two replicates, listed as RN341, 5 µM)?
The value was 105.865%.

What about the remaining tracer BRET signal at 5 µM ([1]; DDR2, inhibitor 5000 nM, two replicates, read-out: nanoBRET response normalized to 0% (no tracer) and 100% (no inhibitor) control) of the same compound?
The remaining tracer BRET signal at 5 µM was 89.9%.

What about the “nanoBRET response normalized to 0% (no tracer) and 100% (no inhibitor) control” value ([1]; DDR2, inhibitor 25000 nM, two replicates, listed as RN341, 25 µM) of the same compound?
Its value is 54.8632%.

And the remaining tracer BRET signal at 25 µM ([1]; DDR2, inhibitor 25000 nM, two replicates, read-out: nanoBRET response normalized to 0% (no tracer) and 100% (no inhibitor) control)?
Its remaining tracer BRET signal at 25 µM is 55.4%.

And the EC50 [2]?
Its EC50 is 15 µM.

And the “nanoBRET response normalized to 0% (no tracer) and 100% (no inhibitor) control” value ([2]; JNK3, inhibitor 8 nM, two replicates, listed as RN341, 0.008 µM)?
The value was 99.6644%.

And the remaining nanoBRET tracer signal at 0.008 µM ([2]; JNK3, inhibitor 8 nM, two replicates, read-out: nanoBRET response normalized to 0% (no tracer) and 100% (no inhibitor) control)?
The remaining nanoBRET tracer signal at 0.008 µM was 90%.

What about the “nanoBRET response normalized to 0% (no tracer) and 100% (no inhibitor) control” value ([2]; JNK3, inhibitor 16 nM, two replicates, listed as RN341, 0.016 µM) of the same compound?
Its value is 91.5832%.

What about the remaining nanoBRET tracer signal at 0.016 µM ([2]; JNK3, inhibitor 16 nM, two replicates, read-out: nanoBRET response normalized to 0% (no tracer) and 100% (no inhibitor) control) of the same compound?
Its remaining nanoBRET tracer signal at 0.016 µM is 91.5%.

And the “nanoBRET response normalized to 0% (no tracer) and 100% (no inhibitor) control” value ([2]; JNK3, inhibitor 50 nM, two replicates, listed as RN341, 0.05 µM)?
Its value is 98.9095%.

And the remaining nanoBRET tracer signal at 0.05 µM ([2]; JNK3, inhibitor 50 nM, two replicates, read-out: nanoBRET response normalized to 0% (no tracer) and 100% (no inhibitor) control)?
Its remaining nanoBRET tracer signal at 0.05 µM is 96.2%.

What about the “nanoBRET response normalized to 0% (no tracer) and 100% (no inhibitor) control” value ([2]; JNK3, inhibitor 250 nM, two replicates, listed as RN341, […]) of the same compound?
Its value is 99.8628%.

And the remaining nanoBRET tracer signal at […] ([2]; JNK3, inhibitor 250 nM, two replicates, read-out: nanoBRET response normalized to 0% (no tracer) and 100% (no inhibitor) control)?
The remaining nanoBRET tracer signal at […] was 96.3%.

And the “nanoBRET response normalized to 0% (no tracer) and 100% (no inhibitor) control” value ([2]; JNK3, inhibitor 500 nM, two replicates, listed as RN341, 0.5 µM)?
Its value is 92.6932%.

And the remaining nanoBRET tracer signal at 0.5 µM ([2]; JNK3, inhibitor 500 nM, two replicates, read-out: nanoBRET response normalized to 0% (no tracer) and 100% (no inhibitor) control)?
The remaining nanoBRET tracer signal at 0.5 µM was 93.9%.

What about the “nanoBRET response normalized to 0% (no tracer) and 100% (no inhibitor) control” value ([2]; JNK3, inhibitor 2500 nM, two replicates, listed as RN341, […]) of the same compound?
The value was 84.3032%.

What about the remaining nanoBRET tracer signal at […] ([2]; JNK3, inhibitor 2500 nM, two replicates, read-out: nanoBRET response normalized to 0% (no tracer) and 100% (no inhibitor) control) of the same compound?
The remaining nanoBRET tracer signal at […] was 90.4%.

And the “nanoBRET response normalized to 0% (no tracer) and 100% (no inhibitor) control” value ([2]; JNK3, inhibitor 5000 nM, two replicates, listed as RN341, 5 µM)?
Its value is 67.4443%.

What about the remaining nanoBRET tracer signal at 5 µM ([2]; JNK3, inhibitor 5000 nM, two replicates, read-out: nanoBRET response normalized to 0% (no tracer) and 100% (no inhibitor) control) of the same compound?
The remaining nanoBRET tracer signal at 5 µM was 74.7%.
